In brackets after ≈: the same amount, converted by molar mass. Where two headings read alike, the source gives them in different places.
Legend:
Escherichia coli MG1655 = test: Antibiotic MIC determination (serial twofold dilutions, OD600 during 17 hours at 37° C.); format: cell-based; conditions: 37° C.; for MIC: Escherichia coli
Method: The Minimal Inhibitory Concentration (MIC) of the antibiotics was determined under the same culture conditions as the tests using the ATP assay kit. […] An exponentially growing culture (OD600=0.3) was added to each well (60 μl/well) of a sterile microtiter plate containing the test concentration of antibiotic (40 μl/well). The volume was completed to 120 μl with medium and OD600 nm measurements were performed using a microtiter plate reader (Infinite 200 PRO, TECAN) during 17 hours at 37° C.
In all the following experiments, the MIC values were measured for each antibiotic with parameters such as temperature, OD600 and equipment identical to those used for the bioluminescence assay.

[1] = system: E. coli MG1655 reporter cells; format: cell-based, Escherichia coli; conditions: for Lag before ATP release (shortest, incompressible value): highest concentrations tested; for Intensity of ATP release signal in minimal medium compared to rich medium (factor of decrease): MOPS minimal medium vs LB
Method: The classical luciferase was from Molecular Probes (ATP Determination Kit (A22066)). The thermostable luciferase was from “CheckLite AT100” (kikkoman). The Luciferin-luciferase reagents were prepared following manufacturer instructions. Bacteria from exponentially growing cultures (OD600=0.3) were added to each well (60 μl/well) of a black 96-microtiter plate (Greiner Bio-one, 655076) and 20 μl of the luciferin-luciferase reagent solution was added. The microtiter plate was incubated 5 min at 37° C. for reaction with the luciferase to eliminate traces of extracellular ATP. Then 40 μl of antibiotic solution (3 times concentrated) prepared in the culture medium were added. Bioluminescence of each well was monitored for 4 hours under shaking (218 rpm) and at 28 or 37° C., depending on the experiments (see legends of Figures). The reagent stability in presence or absence of antibiotics was checked in control experiments without bacteria but with 4 pmoles of ATP. Tests were also performed in 384-microtiter plates (Greiner Bio-one, 784076).
Aminoglycosides are bactericidal antibiotics causing translational miscoding with lethal consequences for the cell. Leakage of small molecules following an aminoglycoside shock was previously identified by different methods including radiolabelling. Therefore, the inventors investigated the response of live cells to aminoglycoside stress.

[2] = MG1655, read-out: MIC in MOPS glucose 0.4%, MOPS minimal medium glucose 0.4%
[3] = MG1655, LB medium, OD600 0.15 final, read-out: MIC in LB
[4] = antibiotic at 6.25 μg/mL, LB, 37° C.
[5] = antibiotic at 12.5 μg/mL, LB, 37° C.
[6] = antibiotic at 25 μg/mL, LB, 37° C.
[7] = antibiotic at 50 μg/mL, LB, 37° C.
[8] = antibiotic at 100 μg/mL, LB, 37° C.
[9] = antibiotic at 3.125 μg/mL, LB, 37° C.
[10] = MOPS minimal medium (glucose 0.4%), FIG. 11
[11] = antibiotic at 200 μg/mL, LB, 37° C.

| Compound | MIC (Escherichia coli MG1655; [2]) [µg/mL] | MIC (Escherichia coli MG1655; [3]) [µg/mL] | Lag time before ATP [1, 5] [min] | Lag time before ATP [1, 6] [min] | Lag time before ATP [1, 7] [min] | Lag time before ATP [1, 8] [min] | also measured |
| --- | --- | --- | --- | --- | --- | --- | --- |
| NC[C@H]1O[C@H](O[C@H]2[C@H](O)[C@@H](O[C@H]3O[C@H](CO)[C@@H](O)[C@H](N)[C@H]3O)[C@H](N)C[C@@H]2N)[C@H](O)[C@@H](O)[C@@H]1O [Kanamycin] | 3 (≈ 6.19 µM) | 25 (≈ 51.6 µM) | 25 | 16 | 11 | 8 | Lag time before ATP [1, 4]: 50 min; Lag before ATP release (shortest, incompressible value) ([1]; LB, 37° C.): ~4.7 min |
| CO[C@@H]1[C@@H](OC(N)=O)[C@@H](O)[C@H](Oc2ccc3c(O)c(NC(=O)c4ccc(O)c(CC=C(C)C)c4)c(=O)oc3c2C)OC1(C)C [Novobiocin] | – | 200 (≈ 326 µM) | – | – | – | – | – |
| CC1(C)S[C@@H]2[C@H](NC(=O)[C@H](N)c3ccc(O)cc3)C(=O)N2[C@H]1C(=O)O [Amoxicillin] | 12.5 (≈ 34.2 µM) | 12.5 (≈ 34.2 µM) | 11.4 | 8 | 6.9 | – | Lag time before ATP [1, 9]: 39.3 min; Lag time before ATP [1, 4]: 31.4 min |
| Polymyxin B | – | – | – | – | – | – | MIC in LB (Escherichia coli MG1655; LB medium, OD600 0.15 final): 8 µg/mL; MIC in MOPS glucose 0.4% (Escherichia coli MG1655; MOPS minimal medium glucose 0.4%): 4 µg/mL; Shape of ATP release trace ([1]; LB medium, 37° C., FIG. 8): bi-phasic; Dose at which the amplitude of the initial burst was maximal ([1]; LB, FIG. 8): 4 µg/mL; Shape of ATP release trace [1, 10]: monophasic; Intensity of ATP release signal in minimal medium compared to rich medium (factor of decrease) [1]: 3; Lag before ATP release ([1]; above the concentration of 4 μg/ml, LB): < 2.4 min; Lag time before ATP ([1]; antibiotic at 2 μg/mL, LB, 37° C.): 5.3 min; Lag time before ATP ([1]; antibiotic at 4 μg/mL, LB, 37° C.): 2.4 min; Lag time before ATP ([1]; antibiotic at 8 μg/mL, LB, 37° C.): < 2.4 min; Lag time before ATP ([1]; antibiotic at 16 μg/mL, LB, 37° C.): < 2.4 min; Lag time before ATP ([1]; antibiotic at 32 μg/mL, LB, 37° C.): < 2.4 min |
| CCN1CCN(C(=O)N[C@@H](C(=O)N[C@@H]2C(=O)N3[C@@H]2SC(C)(C)[C@@H]3C(=O)O)c2ccccc2)C(=O)C1=O [Piperacillin] | – | 200 (≈ 386 µM) | – | – | – | – | – |
| CO[C@H]1/C=C/O[C@@]2(C)Oc3c(C)c(O)c4c(O)c(c(/C=N/N5CCN(C)CC5)c(O)c4c3C2=O)NC(=O)/C(C)=C\C=C\[C@H](C)[C@H](O)[C@@H](C)[C@@H](O)[C@@H](C)[C@H](OC(C)=O)[C@@H]1C [Rifampicin] | 25 (≈ 30.4 µM) | 50 (≈ 60.8 µM) | 57.1 | 38 | 34.8 | 34.6 | Lag of ATP leakage ([1]; LB, FIG. 9): about 30 minutes; Lag time before ATP [1, 9]: 67 min; Lag time before ATP [1, 4]: 63.8 min |
| C[C@@H]1O[C@@H]1P(=O)(O)O [Fosfomycin] | 100 (≈ 724 µM) | 50 (≈ 362 µM) | 28.6 | 26.2 | 21.8 | 20.2 | Lag time before ATP [1, 11]: 18.6 min |
| CC[C@H]1OC(=O)[C@H](C)[C@@H](O[C@H]2C[C@@](C)(OC)[C@@H](O)[C@H](C)O2)[C@H](C)[C@@H](O[C@@H]2O[C@H](C)C[C@H](N(C)C)[C@H]2O)[C@](C)(O)C[C@@H](C)CN(C)[C@H](C)[C@@H](O)[C@]1(C)O [Azithromycin] | 125 (≈ 167 µM) | 175 (≈ 234 µM) | – | – | – | – | High dose at which ATP release was observed ([1]; LB, FIG. 9): 2.5 times the MIC; ATP leakage ([1]; highest concentration (400 μg/mL), MOPS minimal medium (glucose 0.4%)): stimulated a ATP leakage |
| CC(C)(O/N=C(\C(=O)N[C@@H]1C(=O)N2C(C(=O)[O-])=C(C[n+]3ccccc3)CS[C@H]12)c1csc(N)n1)C(=O)O [Ceftazidime] | 100 (≈ 183 µM) | 100 (≈ 183 µM) | – | 40.3 | 8.6 | 8.3 | Lag time before ATP [1, 11]: 8.0 min; Lag time before ATP ([1]; antibiotic at 400 μg/mL, LB, 37° C.): 7.8 min |
| CN[C@@H]1[C@H](O)[C@H](NC)[C@H]2O[C@@]3(O)C(=O)C[C@@H](C)O[C@H]3O[C@@H]2[C@H]1O [Spectinomycin] | 100 (≈ 301 µM) | 50 (≈ 150 µM) | – | – | – | – | Amplitude of ATP release ([1]; bacteriostatic antibiotics, LB, FIG. 9): very weak amplitude |
| [H]/N=C(/N)N[C@H]1[C@H](O)[C@@H](O)[C@H](O[C@@H]2O[C@@H](C)[C@](O)(C=O)[C@H]2O[C@@H]2O[C@@H](CO)[C@H](O)[C@@H](O)[C@@H]2NC)[C@@H](N/C(N)=N\[H])[C@@H]1O [Streptomycin] | 6.25 (≈ 10.7 µM) | 50 (≈ 86 µM) | 39 | 21 | 16 | 12 | Shape of ATP release trace ([1]; LB medium, 37° C., FIG. 8): bi-phasic; Lag time before ATP [1, 11]: 10 min; Lag before ATP release (shortest, incompressible value) ([1]; LB, 37° C.): ~10 min |
| CC1(C)S[C@@H]2[C@H](NC(=O)[C@H](N)c3ccccc3)C(=O)N2[C@H]1C(=O)O [Ampicillin] | 25 (≈ 71.5 µM) | 25 (≈ 71.5 µM) | 43 | 23 | 13 | 9 | Shape of ATP release trace ([1]; LB medium, 37° C., FIG. 8): multiphasic; Intensity of ATP release signal in minimal medium compared to rich medium (factor of decrease) [1]: 10; Lag time before ATP [1, 4]: 108 min; Lag before ATP release (shortest, incompressible value) ([1]; LB, 37° C.): 9 min |
| O=C(O)c1cn(C2CC2)c2cc(N3CCNCC3)c(F)cc2c1=O [Ciprofloxacin] | 6.25 (≈ 18.9 µM) | 25 (≈ 75.4 µM) | – | – | – | – | – |
| CN[C@@H]1[C@@H](O[C@H]2O[C@H](CO)[C@@H](N)[C@H](O)[C@H]2O)OC2C[C@@H](N)[C@@H](O[C@H]3[C@H](O)[C@@H](O)[C@H](N)C[C@@H]3N)OC2[C@@H]1O (stereo partly drawn) [Apramycin] | 2.5 (≈ 4.63 µM) | 20.2 (≈ 37.4 µM) | – | – | – | – | Shape of ATP release trace ([1]; LB medium, 37° C., FIG. 8): bi-phasic; Shape of ATP release trace [1, 10]: monophasic; Lag time before ATP ([1]; antibiotic at 6.75 μg/mL, LB, 37° C.): 60.9 min; Lag time before ATP ([1]; antibiotic at 13.5 μg/mL, LB, 37° C.): 30.0 min; Lag time before ATP ([1]; antibiotic at 27 μg/mL, LB, 37° C.): 13.3 min; Lag time before ATP ([1]; antibiotic at 54 μg/mL, LB, 37° C.): 10.9 min; Lag before ATP release (shortest, incompressible value) ([1]; LB, 37° C.): ~10.9 min |
| C=CC1=C(C(=O)O)N2C(=O)[C@@H](NC(=O)/C(=N\OCC(=O)O)c3csc(N)n3)[C@H]2SC1 [Cefixime] | 50 (≈ 110 µM) | 50 (≈ 110 µM) | 17.5 | 16.7 | 15.2 | 14.9 | Lag time before ATP [1, 11]: 14.2 min |
| O=C1CN(/N=C/c2ccc([N+](=O)[O-])o2)C(=O)N1 [Nitrofurantoin] | 50 (≈ 210 µM) | 50 (≈ 210 µM) | – | – | – | – | – |
| Cc1cc(NS(=O)(=O)c2ccc(N)cc2)no1 [Sulfamethoxazole] | 1600 (≈ 6320 µM) | – | – | – | – | – | – |

— US12595504B2, “Methods for screening compounds for bactericidal activity and for determining the sensitivity of bacterial samples” (priority 2020, dated 2026)
